{
  "source": "paper PMC7327142",
  "about": "(Biomolecules & Therapeutics, 2020)",
  "key": {"HEK293 cells": {"tested_on": "HEK293 cells", "conditions": "for Cytotoxicity against HEK cells: 25 h"}},
  "data": [
    {"smiles": "O=C(CCCN1C(=O)c2ccccc2C1=O)Nc1ccc2ccccc2c1", "note": "[Compound 4, 4-(1,3-dioxo-1,3-dihydro-2H-isoindol-2-yl)-N-2-naphthylbutanamide]", "values": [
      {"measurement": "effect on growth and proliferation of HEK293 cells", "setting": "HEK293 cells", "value": "decreased the cell numbers"},
      {"measurement": "Cytotoxicity against HEK cells", "setting": "HEK293 cells; 20 µM", "value": 0.603}
    ]},
    {"smiles": "O=C(c1cc(-c2ccc(F)cc2)n[nH]1)N1CCC(Cc2ccc(CO)cc2)C1", "note": "(stereo not shown) [Compound 22, {4-[(1-{[3-(4-fluorophenyl)-1H-pyrazol-5-yl]carbonyl}pyrrolidin-3-yl)methyl]phenyl}methanol]", "values": [
      {"measurement": "Cytotoxicity against HEK cells", "setting": "HEK293 cells; 20 µM", "value": 0.596}
    ]},
    {"smiles": "COCc1ccc(C(=O)NCc2nc(-c3cccc(NC(=O)C4CCCN(C)C4)c3)oc2C)s1", "note": "(stereo not shown) [Compound 26, N-(3-{4-[({[5-(methoxymethyl)-2-thienyl]carbonyl}amino)methyl]-5-methyl-1,3-oxazol-2-yl}phenyl)-1-methyl-3-piperidinecarboxamide]", "values": [
      {"measurement": "Cytotoxicity against HEK cells", "setting": "HEK293 cells; 20 µM", "value": 0.587}
    ]},
    {"smiles": "O=C(CCCc1ccccc1)Nc1cccc(N2CCC(NCc3cccnc3)CC2)c1", "note": "[Compound 33, 4-phenyl-N-(3-{4-[(3-pyridinylmethyl)amino]-1-piperidinyl}phenyl)butanamide]", "values": [
      {"measurement": "Cytotoxicity against HEK cells", "setting": "HEK293 cells; 20 µM", "value": 0.588}
    ]},
    {"smiles": "CC(C)(O)C#Cc1ccc(C(=O)N2CCCC(CCC(=O)NCc3ccccc3F)C2)cc1", "note": "(stereo not shown) [Compound 35, N-(2-fluorobenzyl)-3-{1-[4-(3-hydroxy-3-methyl-1-butyn-1-yl)benzoyl]-3-piperidinyl}propanamide]", "values": [
      {"measurement": "Cytotoxicity against HEK cells", "setting": "HEK293 cells; 20 µM", "value": 0.580}
    ]},
    {"smiles": "Cn1cc(C(=O)N2CCN(CCOc3ccc(CN4CCC(Cc5ccccc5)CC4)cc3)CC2)c(=O)c2ccccc21", "note": "[Compound 58, 3-{[4-(2-{4-[(4-benzyl-1-piperidinyl)methyl]phenoxy}ethyl)-1-piperazinyl]carbonyl}-1-methyl-4(1H)-quinolinone]", "values": [
      {"measurement": "Cytotoxicity against HEK cells", "setting": "HEK293 cells; 20 µM", "value": 0.602}
    ]},
    {"smiles": "CN(Cc1ccc(OCCN2CCN(C(=O)C3Cc4ccccc4O3)CC2)cc1)Cc1ccc2ncccc2c1", "note": "(stereo not shown) [Compound 60, (4-{2-[4-(2,3-dihydro-1-benzofuran-2-ylcarbonyl)-1-piperazinyl]ethoxy}benzyl)methyl(6-quinolinylmethyl)amine]", "values": [
      {"measurement": "Cytotoxicity against HEK cells", "setting": "HEK293 cells; 20 µM", "value": 0.572}
    ]},
    {"smiles": "O=C(Nc1cccc(N2CCC(NCCC(c3ccc(F)cc3)c3ccco3)CC2)c1)c1ccncc1", "note": "(stereo not shown) [Compound 61, N-[3-(4-{[3-(4-fluorophenyl)-3-(2-furyl)propyl]amino}-1-piperidinyl)phenyl]isonicotinamide]", "values": [
      {"measurement": "Cytotoxicity against HEK cells", "setting": "HEK293 cells; 20 µM", "value": 0.173}
    ]},
    {"smiles": "COC(=O)c1c(NC(=O)C2CCCO2)c2cc(NCc3cccc(OCCO)c3)cnc2n1CCc1ccccc1", "note": "(stereo not shown) [Compound 69, methyl 5-{[3-(2-hydroxyethoxy)benzyl]amino}-1-(2-phenylethyl)-3-[(tetrahydro-2-furanylcarbonyl)amino]-1H-pyrrolo[2,3-b]pyridine-2-carboxylate]", "values": [
      {"measurement": "effect on growth and proliferation of HEK293 cells", "setting": "HEK293 cells", "value": "decreased the cell numbers"},
      {"measurement": "morphological changes in HEK293 cells", "setting": "HEK293 cells; 20 µM", "value": "slightly triggered cellular shrinking"},
      {"measurement": "Cytotoxicity against HEK cells", "setting": "HEK293 cells; 20 µM", "value": 0.529}
    ]},
    {"smiles": "O=C(C1CCCN(c2cccc3c2C(=O)N(Cc2ccsc2)C3=O)C1)N1CCC(O)(c2cccc(C(F)(F)F)c2)CC1", "note": "(stereo not shown) [Compound 73, 4-[3-({4-hydroxy-4-[3-(trifluoromethyl)phenyl]-1-piperidinyl}carbonyl)-1-piperidinyl]-2-(3-thienylmethyl)-1H-isoindole-1,3(2H)-dione]", "values": [
      {"measurement": "cytotoxicity in Vero cells", "setting": "Vero cells", "value": "no cytotoxicity"},
      {"measurement": "growth of Vero cells", "setting": "Vero cells", "value": "reduced the growth"},
      {"measurement": "Cytotoxicity against HEK cells", "setting": "HEK293 cells; 20 µM", "value": 0.602}
    ]},
    {"smiles": "O=C(NCCS(=O)(=O)N1CCc2ccccc2C1)C1CC(=O)N(c2ccc(Cl)cc2)C1", "note": "(stereo not shown) [Compound 74, 1-(4-chlorophenyl)-N-(2-((3,4-dihydroisoquinolin-2(1H)-yl)sulfonyl)ethyl)-5-oxopyrrolidine-3-carboxamide]", "values": [
      {"measurement": "cytotoxicity in Vero cells", "setting": "Vero cells", "value": "no cytotoxicity"},
      {"measurement": "growth of Vero cells", "setting": "Vero cells", "value": "reduced the growth"},
      {"measurement": "Cytotoxicity against HEK cells", "setting": "HEK293 cells; 20 µM", "value": 0.568}
    ]},
    {"smiles": "Cc1ccc(N2CC(C(=O)NCCS(=O)(=O)N3CCc4ccccc4C3)CC2=O)cc1", "note": "(stereo not shown) [Compound 75, N-(2-((3,4-dihydroisoquinolin-2(1H)-yl)sulfonyl)ethyl)-5-oxo-1-(p-tolyl)pyrrolidine-3-carboxamide]", "values": [
      {"measurement": "Cytotoxicity against HEK cells", "setting": "HEK293 cells; 20 µM", "value": 0.604}
    ]},
    {"smiles": "Cc1ccc(N2CC(C(=O)NCCS(=O)(=O)N3CCc4ccccc4C3)CC2=O)cc1C", "note": "(stereo not shown) [Compound 76, N-(2-((3,4-dihydroisoquinolin-2(1H)-yl)sulfonyl)ethyl)-1-(3,4-dimethylphenyl)-5-oxopyrrolidine-3-carboxamide]", "values": [
      {"measurement": "Cytotoxicity against HEK cells", "setting": "HEK293 cells; 20 µM", "value": 0.520}
    ]},
    {"smiles": "COc1cccc(N2CC(C(=O)NCCS(=O)(=O)N3CCc4ccccc4C3)CC2=O)c1", "note": "(stereo not shown) [Compound 77, N-(2-((3,4-dihydroisoquinolin-2(1H)-yl)sulfonyl)ethyl)-1-(3-methoxyphenyl)-5-oxopyrrolidine-3-carboxamide]", "values": [
      {"measurement": "Cytotoxicity against HEK cells", "setting": "HEK293 cells; 20 µM", "value": 0.578}
    ]},
    {"smiles": "O=C(NCCS(=O)(=O)N1CCN(c2ccc(F)cc2)CC1)C1CC(=O)N(c2ccccc2)C1", "note": "(stereo not shown) [Compound 78, N-(2-((4-(4-fluorophenyl)piperazin-1-yl)sulfonyl)ethyl)-5-oxo-1-phenylpyrrolidine-3-carboxamide]", "values": [
      {"measurement": "Cytotoxicity against HEK cells", "setting": "HEK293 cells; 20 µM", "value": 0.574}
    ]}
  ]
}
